Source: ChEMBL document CHEMBL1201862, “PubChem BioAssay data set” (2004)
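Five concentrations, 48 hours, 96-well plates. GI50 is the concentration that inhibits growth by half.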 Calls of active or inactive are those of the source. No stated cut-off is given here; in the data, active = GI50 up to about 1.1 µM and inactive = higher.

How the values were obtained:
Assay in all cases: NCI tumour cell line growth inhibition, 48 h
786-0 = test system: 786-0
A498 = test system: A498
A549 = test system: A549
ACHN = test system: ACHN
BT-549 = test system: BT-549
CAKI-1 = test system: CAKI-1
CCRF-CEM = test system: CCRF-CEM
COLO 205 = test system: COLO 205
DU-145 = test system: DU-145
EKVX = test system: EKVX
HCC 2998 = test system: HCC 2998
HCT-116 = test system: HCT-116
HCT-15 = test system: HCT-15
HOP-62 = test system: HOP-62
HT-29 = test system: HT-29
IGROV-1 = test system: IGROV-1
K562 = test system: K562
KM12 = test system: KM12
LOX IMVI = test system: LOX IMVI
M14 = test system: M14
MCF7 = test system: MCF7
MDA-MB-231 = test system: MDA-MB-231
MDA-MB-435 = test system: MDA-MB-435
MDA-N = test system: MDA-N
MOLT-4 = test system: MOLT-4
Malme-3M = test system: Malme-3M
NCI-H226 = test system: NCI-H226
NCI-H23 = test system: NCI-H23
NCI-H460 = test system: NCI-H460
NCI-H522 = test system: NCI-H522
NCI/ADR-RES = test system: NCI/ADR-RES
OVCAR-3 = test system: OVCAR-3
OVCAR-4 = test system: OVCAR-4
OVCAR-5 = test system: OVCAR-5
OVCAR-8 = test system: OVCAR-8
PC-3 = test system: PC-3
RPMI-8226 = test system: RPMI-8226
RXF 393 = test system: RXF 393
SF-268 = test system: SF-268
SF-295 = test system: SF-295
SF-539 = test system: SF-539
SK-MEL-28 = test system: SK-MEL-28
SK-MEL-2 = test system: SK-MEL-2
SK-MEL-5 = test system: SK-MEL-5
SK-OV-3 = test system: SK-OV-3
SN12C = test system: SN12C
SNB-19 = test system: SNB-19
SNB-75 = test system: SNB-75
SR = test system: SR
SW-620 = test system: SW-620
T47D = test system: T47D
TK-10 = test system: TK-10
U-251 = test system: U-251
UACC-257 = test system: UACC-257
UACC-62 = test system: UACC-62
UO-31 = test system: UO-31
HL-60 = test system: HL-60
HOP-92 = test system: HOP-92

Measured: GI50

C[C@]12CC[C@@H]3c4ccc(O)cc4CC[C@H]3[C@@H]1C/C(=C\c1ccc([N+](=O)[O-])cc1)C2=O
67 µM: HCT-15
inactive: 786-0 > 100 µM | A498 > 100 µM | A549 57.9 µM | ACHN 61.4 µM | BT-549 > 100 µM | CAKI-1 > 100 µM | CCRF-CEM 53.7 µM | COLO 205 > 100 µM | DU-145 50 µM | EKVX 52.6 µM | HCC 2998 73.3 µM | HCT-116 37.7 µM | HOP-62 33.7 µM | HT-29 18.6 µM | IGROV-1 > 100 µM | K562 99.8 µM | KM12 42.6 µM | LOX IMVI 36.6 µM | M14 53.3 µM | MCF7 52.1 µM | MDA-MB-231 67.6 µM | MDA-MB-435 37.8 µM | MDA-N 49.5 µM | MOLT-4 > 100 µM | Malme-3M 67.6 µM | NCI-H226 71.6 µM | NCI-H23 78.9 µM | NCI-H460 48 µM | NCI-H522 24.1 µM | NCI/ADR-RES 59.2 µM | OVCAR-3 74 µM | OVCAR-4 > 100 µM | OVCAR-5 > 100 µM | OVCAR-8 34.9 µM | PC-3 37.2 µM | RPMI-8226 > 100 µM | RXF 393 15.9 µM | SF-268 52.6 µM | SF-295 > 100 µM | SF-539 29.9 µM | SK-MEL-28 > 100 µM | SK-MEL-2 44.6 µM | SK-MEL-5 41.5 µM | SK-OV-3 > 100 µM | SN12C > 100 µM | SNB-19 > 100 µM | SNB-75 50.7 µM | SR 65.3 µM | SW-620 > 100 µM | T47D 40 µM | TK-10 80 µM | U-251 40.1 µM | UACC-257 34.8 µM | UACC-62 37.8 µM | UO-31 77.1 µM

N#CC1C(=O)NC23CCCCC2C1c1ccccc1O3 (stereo not given)
> 100 µM: HCT-15
inactive: 786-0 > 100 µM | A498 > 100 µM | A549 > 100 µM | ACHN > 100 µM | BT-549 > 100 µM | CAKI-1 > 100 µM | CCRF-CEM 74.8 µM | COLO 205 > 100 µM | DU-145 > 100 µM | EKVX > 100 µM | HCC 2998 > 100 µM | HCT-116 > 100 µM | HL-60 > 100 µM | HOP-62 > 100 µM | HT-29 > 100 µM | IGROV-1 > 100 µM | K562 > 100 µM | KM12 > 100 µM | LOX IMVI > 100 µM | M14 > 100 µM | MCF7 > 100 µM | MDA-MB-231 > 100 µM | MDA-MB-435 > 100 µM | MDA-N > 100 µM | MOLT-4 > 100 µM | Malme-3M > 100 µM | NCI-H226 > 100 µM | NCI-H23 > 100 µM | NCI-H460 > 100 µM | NCI-H522 > 100 µM | NCI/ADR-RES > 100 µM | OVCAR-3 > 100 µM | OVCAR-4 > 100 µM | OVCAR-5 > 100 µM | OVCAR-8 > 100 µM | PC-3 > 100 µM | RPMI-8226 > 100 µM | RXF 393 > 100 µM | SF-268 2.1 µM | SF-295 > 100 µM | SK-MEL-28 53.5 µM | SK-MEL-2 > 100 µM | SK-MEL-5 > 100 µM | SK-OV-3 > 100 µM | SNB-19 > 100 µM | SNB-75 > 100 µM | SW-620 > 100 µM | TK-10 > 100 µM | U-251 > 100 µM | UACC-257 > 100 µM | UACC-62 > 100 µM | UO-31 > 100 µM
active: HOP-92 0.241 µM
